Tested on: human cytomegalovirus (HCMV)
Assay: microbe, parasite or virus in culture
Type: cell-based
Conditions: Human MRCS cells, 0.01 IU per cell, virus yield at 7 days post infection, mCherry positive cells

Compound | IC50 (Human betaherpesvirus 5, 168 h) [nM] | IC50 [nM]
CC(C)c1cc(Cc2cnc(N3CCc4ccc(-c5cn(C)nn5)cc4C3)s2)cc(-n2cccn2)c1 [Example 1] | 11700 | –
Cn1cc(-c2ccc3c(c2)CN(c2ncc(Cc4ccc(-n5cccn5)cc4)s2)CC3)nn1 [Example 2] | 1170 | –
Cn1cc(-c2ccc3c(c2)CN(c2ncc(Cc4cccc(-n5cccn5)c4)s2)CC3)nn1 [Example 3] | 1910 | –
c1cc(Cc2cnc(N3CCc4ccc(-c5c[nH]nn5)cc4C3)s2)cc(-n2cccn2)c1 [Example 4] | 758 | –
c1cnn(-c2ccc(Cc3cnc(N4CCc5ccc(-c6c[nH]nn6)cc5C4)s3)cc2)c1 [Example 5] | 807 | –
Cc1nc(-c2ccc3c(c2)CN(c2ncc(Cc4ccc(-n5cccn5)cc4)s2)CC3)no1 [Example 6] | 3370 | –
COCCn1nncc1-c1ccc2c(c1)CN(c1ncc(Cc3ccc(-n4cccn4)cc3)s1)CC2 [Example 7] | 1700 | –
COCCn1nncc1-c1ccc2c(c1)CN(c1ncc(Cc3cccc(-n4cccn4)c3)s1)CC2 [Example 8] | 2010 | –
c1cnn(-c2ccc(Cc3cnc(N4CCc5ccc(-n6ccnc6)cc5C4)s3)cc2)c1 [Example 9] | 479 | –
COCCn1cc(-c2ccc3c(c2)CN(c2ncc(Cc4ccc(-n5cccn5)cc4)s2)CC3)nn1 [Example 11] | 1700 | –
COCCn1cc(-c2ccc3c(c2)CN(c2ncc(Cc4cccc(-n5cccn5)c4)s2)CC3)nn1 [Example 12] | 5980 | –
Cc1cn(-c2ccc3c(c2)CN(c2ncc(Cc4ccc(-n5cccn5)cc4)s2)CC3)cn1 [Example 13] | 1060 | –
Cc1cn(-c2ccc3c(c2)CN(c2ncc(Cc4ccc(-n5cccn5)cc4)s2)CC3)c(C)n1 [Example 14] | 453 | –
c1cc(Cc2cnc(N3CCc4ccc(-c5nc[nH]n5)cc4C3)s2)cc(-n2cccn2)c1 [Example 15] | 1850 | –
c1cnn(-c2ccc(Cc3cnc(N4CCc5ccc(-c6nc[nH]n6)cc5C4)s3)cc2)c1 [Example 16] | 200 | –
c1cn(-c2ccc(Cc3cnc(N4CCc5ccc(-n6ccnc6)cc5C4)s3)cc2)cn1 [Example 17] | 748 | –
c1cnn(-c2ccc(Cc3cnc(N4CCc5cc(-n6ccnc6)ccc5C4)s3)cc2)c1 [Example 18] | – | 1080
Cc1cn(-c2ccc3c(c2)CN(c2ncc(Cc4cccc(-n5cccn5)c4)s2)CC3)c(C)n1 [Example 19] | 1300 | –
c1cnn(-c2ccc(Cc3cnc(N4CCc5ccc(-c6ncc[nH]6)cc5C4)s3)cc2)c1 [Example 20] | 5270 | –
Cc1cn(-c2ccc3c(c2)CN(c2ncc(Cc4cccc(-n5cccn5)c4)s2)CC3)cn1 [Example 21] | 2620 | –
COc1ccc(Cc2cnc(N3CCc4ccc(-n5cc(C)nc5C)cc4C3)s2)cc1-n1cccn1 [Example 22] | 306 | –
Cc1cn(-c2ccc(Cc3cnc(N4CCc5ccc(-n6cc(C)nc6C)cc5C4)s3)cc2)c(C)n1 [Example 23] | 707 | –
O=C1OCCN1c1ccc2c(c1)CN(c1ncc(Cc3ccc(-n4cccn4)cc3)s1)CC2 [Example 24] | 353 | –

Compound | IC50 (Human betaherpesvirus 5, 168 h) [nM] | IC50 [nM]
O=C1NCCN1c1ccc2c(c1)CN(c1ncc(Cc3ccc(-n4cccn4)cc3)s1)CC2 [Example 25] | 911 | –
CN1CCN(c2ccc3c(c2)CN(c2ncc(Cc4ccc(-n5cccn5)cc4)s2)CC3)C1=O [Example 26] | 637 | –
COc1cc(Cc2cnc(N3CCc4ccc(-n5cc(C)nc5C)cc4C3)s2)ccc1-n1cccn1 [Example 27] | 345 | –
O=C1OCCN1c1ccc2c(c1)CN(c1ncc(Cc3cccc(-n4cccn4)c3)s1)CC2 [Example 28] | 1890 | –
O=C1OCCN1c1ccc2c(c1)CN(c1ncc(Cc3ccc(-c4ncccn4)cc3)s1)CC2 [Example 29] | 858 | –
N#Cc1ccc(Cc2cnc(N3CCc4ccc(N5CCOC5=O)cc4C3)s2)cc1 [Example 30] | 4420 | –
O=C1OCCN1c1ccc2c(c1)CN(c1ncc(Cc3ccc(N4CCOCC4)cc3)s1)CC2 [Example 31] | 803 | –
O=C1OCCN1c1ccc(Cc2cnc(N3CCc4ccc(N5CCOC5=O)cc4C3)s2)cc1 [Example 32] | 979 | –
O=C1OCCN1c1ccc2c(c1)CN(c1ncc(Cc3cccc(N4CCS(=O)(=O)CC4)c3)s1)CC2 [Example 33] | 903 | –
CS(=O)(=O)c1cccc(Cc2cnc(N3CCc4ccc(N5CCOC5=O)cc4C3)s2)c1 [Example 34] | 633 | –
O=C1OCCN1c1ccc2c(c1)CN(c1ncc(Cc3cccc(N4CCOCC4)c3)s1)CC2 [Example 35] | 891 | –
O=C1OCCN1c1ccc2c(c1)CN(c1ncc(Cc3ccc(N4CCS(=O)(=O)CC4)cc3)s1)CC2 [Example 36] | 666 | –
O=C1NCCCN1c1ccc2c(c1)CN(c1ncc(Cc3ccc(-n4cccn4)cc3)s1)CC2 [Example 37] | 9960 | –
CN1CCCN(c2ccc3c(c2)CN(c2ncc(Cc4ccc(-n5cccn5)cc4)s2)CC3)C1=O [Example 38] | 3490 | –
N#Cc1cccc(Cc2cnc(N3CCc4ccc(N5CCOC5=O)cc4C3)s2)c1 [Example 39] | 2740 | –
O=C1OCCN1c1cccc(Cc2cnc(N3CCc4ccc(N5CCOC5=O)cc4C3)s2)c1 [Example 40] | 956 | –
O=C1OCCN1c1ccc2c(c1)CN(c1ncc(Cc3ccc(-n4cccn4)nc3)s1)CC2 [Example 41] | 553 | –
O=C1COCCN1c1ccc2c(c1)CN(c1ncc(Cc3ccc(-n4cccn4)cc3)s1)CC2 [Example 42] | 2470 | –
CS(=O)(=O)c1ccc(Cc2cnc(N3CCc4ccc(N5CCOC5=O)cc4C3)s2)cc1 [Example 43] | 617 | –
Cc1cn(-c2ccc(Cc3cnc(N4CCc5ccc(N6CCOC6=O)cc5C4)s3)cc2)c(C)n1 [Example 44] | 552 | –
COCCN1CCCN(c2ccc3c(c2)CN(c2ncc(Cc4ccc(-n5cccn5)cc4)s2)CC3)C1=O [Example 45] | 1780 | –
Cc1cn(-c2ccc3c(c2)CN(c2ncc(Cc4ccc(N5CCOCC5)cc4)s2)CC3)c(C)n1 [Example 46] | 605 | –
Cc1cnc(C)n1-c1ccc2c(c1)CN(c1ncc(Cc3ccc(N4CCOCC4)cc3)s1)CC2 [Example 47] | 796 | –

Compound | IC50 (Human betaherpesvirus 5, 168 h) [nM] | IC50 [nM]
Cc1cn(-c2ccc3c(c2)CN(c2ncc(Cc4ccc(N5CCS(=O)(=O)CC5)cc4)s2)CC3)c(C)n1 [Example 48] | 195 | –
O=C1CCCN1c1ccc2c(c1)CN(c1ncc(Cc3ccc(-c4ncccn4)cc3)s1)CC2 [Example 49] | 516 | –
O=C1CCCN1c1ccc2c(c1)CN(c1ncc(Cc3ccc(N4CCOCC4)cc3)s1)CC2 [Example 50] | 613 | –
O=C1CCCN1c1ccc2c(c1)CN(c1ncc(Cc3ccc(N4CCS(=O)(=O)CC4)cc3)s1)CC2 [Example 51] | 737 | –
CN1CCN(c2ccc3c(c2)CN(c2ncc(Cc4ccc(-c5ncccn5)cc4)s2)CC3)C1=O [Example 52] | 1360 | –
O=C1NCCN1c1ccc2c(c1)CN(c1ncc(Cc3ccc(-c4ncccn4)cc3)s1)CC2 [Example 53] | > 4170 | –
c1cnc(-c2ccc(Cc3cnc(N4CCc5ccc(N6CCOCC6)cc5C4)s3)cc2)nc1 [Example 54] | 1100 | –
O=C1OCCN1c1ccc2c(c1)CN(c1ncc(Cc3cncc(-n4cccn4)c3)s1)CC2 [Example 55] | 3830 | –
Cc1cn(-c2ccc3c(c2)CN(c2ncc(Cc4ccc(N5CCOC5=O)cc4)s2)CC3)c(C)n1 [Example 56] | 317 | –
CN1CCN(c2ccc3c(c2)CN(c2ncc(Cc4ccc(N5CCOC5=O)cc4)s2)CC3)C1=O [Example 57] | 742 | –
O=C1OCCN1c1ccc(Cc2cnc(N3CCc4ccc(N5CCOCC5)cc4C3)s2)cc1 [Example 58] | 1130 | –
CN1CCCN(c2ccc3c(c2)CN(c2ncc(Cc4ccc(C5CCOCC5)cc4)s2)CC3)C1=O [Example 59] | 730 | –
CN1CCCN(c2ccc3c(c2)CN(c2ncc(Cc4ccc(N5CCOCC5)cc4)s2)CC3)C1=O [Example 60] | 9840 | –
CN1CCCN(c2ccc3c(c2)CN(c2ncc(Cc4ccc(S(C)(=O)=O)cc4)s2)CC3)C1=O [Example 61] | 4710 | –
O=C1OCCN1c1ccc2c(c1)CN(c1ncc(Cc3ccc(C4CCOCC4)cc3)s1)CC2 [Example 62] | 362 | –
Cc1cn(-c2ccc3c(c2)CN(c2nc(Cc4cccc(-n5cccn5)c4)cs2)CC3)c(C)n1 [Example 66] | 4480 | –
Cc1cn(-c2ccc3c(c2)CN(c2ncc(Cc4cncc(-n5cccn5)c4)s2)CC3)c(C)n1 [Example 67] | 1190 | –
O=C1OCCCN1c1ccc2c(c1)CN(c1ncc(Cc3ccc(-n4cccn4)cc3)s1)CC2 [Example 69] | 4900 | –
CN1CCN(c2ccc3c(c2)CN(c2ncc(Cc4ccc(-n5cccn5)cc4)s2)CC3)CC1=O [Example 70] | 2140 | –
O=C1CN(c2ccc3c(c2)CN(c2ncc(Cc4ccc(-n5cccn5)cc4)s2)CC3)CCN1 [Example 71] | 10000 | –
c1cnn(-c2ccc(Cc3cnc(N4CCc5ccc(N6CCOCC6)cc5C4)s3)cc2)c1 [Example 72] | 537 | –
O=C1CCCN1c1ccc2c(c1)CN(c1ncc(Cc3ccc(-n4cccn4)cc3)s1)CC2 [Example 73] | 423 | –

Source: patent publication US11459321B2, “Broad spectrum antiviral compositions and methods” (priority 2017, dated 2022)
